Results as given in publication PMC6789782, “Safety Pharmacological Evaluation of the Coffee Component, Caffeoylquinic Acid, and Its Metabolites, Using Ex Vivo and In Vitro Profiling Assays” (Pharmaceuticals, 2019).
“And” between values parts separate entries of the source, which are not always exact repeats. Equal entries are not always repeated. Where two headings read alike, the source gives them in different places.

Key:
[1] = test system: isolated perfused guinea pig heart; assay: Langendorff perfused heart assay; settings: for % change in LV dP/dt max from pre-application / % change in LVPSP from pre-application: mean ± SD, n = 3
Protocol: After injection of heparin sodium (100 unit/body, AY Pharmaceuticals Co., Ltd.) into the jugular vein, the animals were exsanguinated. […] A stainless-steel cannula was inserted in the aorta, followed by attachment to the Langendorff apparatus (Physio-Tech Co., Ltd., Tokyo, Japan). The attached heart was perfused with KH solution at 37.0 ± 0.2 °C. Before use, the KH solution was aerated by a gas mixture (95%O2 + 5%CO2) for 30 min or longer. The perfusion pressure was maintained at 70 mmHg.
DMSO solutions at 1, 10, and 100 mM were diluted 1000-fold with the KH solution to make test solutions of 1, 10, and 100 μM, respectively. The test solutions were cumulatively applied at a flow rate of 20 mL/min for 10 min with each concentration.
An ECG signal was recorded using electrodes fixed on the ventricular apex (+), and a stainless-steel cannula was inserted in the aorta (−), and LVP was recorded from the balloon catheter placed in the left ventricle. The ECG signals were amplified with an amplifier (DAM50; World Precision Instruments, Inc.) and LVPs were monitored with a Pressure Monitor 4 (Living Systems Instrumentation). Both of the waveforms were recorded with computer software (1000 Hz; iox2 and ecgAUTO3; emka Technologies).
Before measurement, the in-balloon pressure was adjusted so that the diastolic blood pressure would be in the range of 0 to 10 mmHg. The cardiac parameters, such as HR, PR interval, QRS duration, QT interval, QTc interval (Fridericia’s formula: QTc = QT/RR^1/3), LVPSP, left-ventricular end diastolic pressure (LVEDP), and LV dP/dt max, were measured.
Data are expressed as mean (± SD). The measured % changes from the pre-application value were used for analyses. Williams test was carried out between the solvent-control and test compound. Student’s t-test was carried out between the solvent-control and positive-control. […] The data from the solvent control and drug groups were tested by F test for homogeneity of variance. F test was performed at the significance level of 5%. When the variances were homogeneous, Student’s t-test was subsequently performed. When the variances were nonhomogeneous, Welch t-test was selected.

rat hippocampal slices = assay: Electrophysiological assay of hippocampal slices, epileptiform discharge (ED) recording; settings: ± SEM
Protocol: A hippocampal slice was placed on the multielectrode array (200 μm distant electrodes) to ensure the multi-electrode grid covered the major surface of the slice. […]
ED frequency (in Hz) was determined as follows: raw data were filtered with a Low Pass filter (Butterworth second order filter) set to 20 Hz. ED number was monitored on-line (epileptiform event amplitudes had to be higher than 15 μV to be counted; a dead time of 200 ms was applied for each epileptiform event detected). ED frequency was averaged using 30-s time intervals. Results are presented as mean frequency of ED for the last 2 min of each condition (± SEM).

Phosphodiesterase PDE4 = assay: In vitro profiling, functional assay; type: biochemical, human; settings: 30 µM
Protocol: (§1) Binding and functional assays of CGAs with the proteins known to be pharmacological targets related to the CVS, CNS, and GI functions were conducted. […] In the binding assay, we measured the radiation activity of the solution containing filtered proteins that bound to the tested compound or high-affinity ligand, while in the functional assays, we measured the reaction product. The ability of the test compound to interact with the tested targets was measured as the inhibition of ligand binding to the target or reaction product production (% inhibition).

Cyclooxygenase COX-2 = target: T1, Cyclooxygenase COX-2 (Homo sapiens, UniProt P35354); assay: In vitro profiling, functional assay; type: biochemical
T1 sequence (P35354 18-604): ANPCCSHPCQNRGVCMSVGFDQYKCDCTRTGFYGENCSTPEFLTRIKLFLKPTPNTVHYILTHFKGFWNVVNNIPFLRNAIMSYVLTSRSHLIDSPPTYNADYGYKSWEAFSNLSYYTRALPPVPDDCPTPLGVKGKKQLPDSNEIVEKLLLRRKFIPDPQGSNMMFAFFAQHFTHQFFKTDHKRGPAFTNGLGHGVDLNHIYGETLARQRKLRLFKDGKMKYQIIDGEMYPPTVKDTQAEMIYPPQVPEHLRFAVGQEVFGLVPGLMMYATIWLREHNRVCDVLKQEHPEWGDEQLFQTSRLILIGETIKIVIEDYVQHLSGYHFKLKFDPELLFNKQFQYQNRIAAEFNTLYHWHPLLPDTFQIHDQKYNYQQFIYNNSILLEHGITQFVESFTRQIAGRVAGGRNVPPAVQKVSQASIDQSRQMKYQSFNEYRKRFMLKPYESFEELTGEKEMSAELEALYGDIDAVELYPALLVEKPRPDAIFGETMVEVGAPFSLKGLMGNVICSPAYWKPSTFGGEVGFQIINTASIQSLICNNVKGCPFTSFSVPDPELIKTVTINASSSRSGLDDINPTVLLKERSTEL
Protocol: as §1

Cyclooxygenase COX-1 = Cyclooxygenase COX-1 (Homo sapiens, UniProt P23219); assay: In vitro profiling, functional assay; type: biochemical
Protocol: as §1

Monoamine Oxidase MAO-A = target: T2, Monoamine Oxidase MAO-A (Homo sapiens, UniProt P21397); assay: In vitro profiling, functional assay; type: biochemical
T2 sequence (P21397 1-527): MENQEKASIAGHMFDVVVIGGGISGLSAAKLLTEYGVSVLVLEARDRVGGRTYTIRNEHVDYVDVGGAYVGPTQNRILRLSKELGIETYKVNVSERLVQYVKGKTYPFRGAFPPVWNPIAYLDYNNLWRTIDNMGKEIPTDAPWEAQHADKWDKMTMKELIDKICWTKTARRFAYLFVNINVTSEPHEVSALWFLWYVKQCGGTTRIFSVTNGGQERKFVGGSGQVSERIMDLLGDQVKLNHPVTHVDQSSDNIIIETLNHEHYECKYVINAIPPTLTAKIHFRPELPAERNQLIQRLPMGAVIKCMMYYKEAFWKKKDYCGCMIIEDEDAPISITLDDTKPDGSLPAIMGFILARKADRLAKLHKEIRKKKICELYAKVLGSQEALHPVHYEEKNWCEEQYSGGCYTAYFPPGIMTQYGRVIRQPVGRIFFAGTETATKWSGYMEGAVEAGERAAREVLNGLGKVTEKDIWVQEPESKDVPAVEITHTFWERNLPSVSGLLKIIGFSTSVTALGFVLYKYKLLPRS
Protocol: as §1

[2] = target: T3, Peptidase, CTSG (Cathepsin G) (Homo sapiens, UniProt P08311); assay: In vitro profiling, functional assay; type: biochemical
T3 sequence (P08311 21-255): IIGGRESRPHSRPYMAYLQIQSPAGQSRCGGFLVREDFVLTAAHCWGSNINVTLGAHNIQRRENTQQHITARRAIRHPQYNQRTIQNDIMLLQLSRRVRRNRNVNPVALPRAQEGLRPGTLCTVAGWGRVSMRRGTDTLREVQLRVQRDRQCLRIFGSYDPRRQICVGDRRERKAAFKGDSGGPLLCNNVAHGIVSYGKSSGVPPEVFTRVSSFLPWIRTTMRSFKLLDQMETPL
Protocol: as §1

[3] = 10 µM compound, co-exposure with 50 μM 4-AP
[4] = 30 µM, Cyclooxygenase COX-1, read-out: % Inhibition
[5] = 30 µM, Monoamine Oxidase MAO-A, read-out: % Inhibition
[6] = 30 µM, Peptidase, CTSG (Cathepsin G), read-out: % Inhibition

Cyclooxygenase COX-1, sequence (P23219 24-599): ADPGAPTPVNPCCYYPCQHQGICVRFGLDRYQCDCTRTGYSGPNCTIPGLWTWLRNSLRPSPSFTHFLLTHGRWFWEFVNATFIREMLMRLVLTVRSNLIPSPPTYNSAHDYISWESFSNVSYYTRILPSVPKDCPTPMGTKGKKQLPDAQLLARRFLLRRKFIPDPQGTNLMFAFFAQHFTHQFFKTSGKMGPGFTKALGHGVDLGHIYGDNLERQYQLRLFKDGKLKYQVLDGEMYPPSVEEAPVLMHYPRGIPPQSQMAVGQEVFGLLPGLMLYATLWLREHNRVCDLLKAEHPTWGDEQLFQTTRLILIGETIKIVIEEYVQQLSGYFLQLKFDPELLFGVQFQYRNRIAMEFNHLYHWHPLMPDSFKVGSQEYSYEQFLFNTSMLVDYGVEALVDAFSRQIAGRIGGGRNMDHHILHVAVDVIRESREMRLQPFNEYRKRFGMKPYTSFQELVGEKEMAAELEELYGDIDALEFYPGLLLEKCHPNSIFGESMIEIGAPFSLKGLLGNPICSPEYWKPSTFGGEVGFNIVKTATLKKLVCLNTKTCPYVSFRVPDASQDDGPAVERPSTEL

**Q.** What does the source list for `O=C(/C=C/c1ccc(O)c(O)c1)O[C@H]1C[C@@](O)(C(=O)O)C[C@H](O)[C@@H]1O` [5-CQA, 5-O-caffeoylquinic acid]?
**A.** % change in LV dP/dt max from pre-application ([1]; 100 μM): −12.0 ± 6.2% and −12%; % change in LVPSP from pre-application ([1]; 100 μM): −8.5 ± 6.2%; ED rate (rat hippocampal slices; [3]): 0.38 ± 0.04 Hz; % Inhibition (Phosphodiesterase PDE4): −6%; inhibition at 30 µM (Cyclooxygenase COX-2): 7%; inhibition at 30 µM (Cyclooxygenase COX-1; [4]): 2%; inhibition at 30 µM (Monoamine Oxidase MAO-A; [5]): -5%; inhibition at 30 µM [2, 6]: 8%

**Q.** For `COc1cc(/C=C/C(=O)O[C@H]2C[C@@](O)(C(=O)O)C[C@H](O)[C@@H]2O)ccc1O` [5-FQA, 5-O-feruloylquinic acid], which ED rate (rat hippocampal slices; [3]) is on record?
**A.** 0.46 ± 0.05 Hz

**Q.** What about the “% Inhibition” value (Phosphodiesterase PDE4) of the same compound?
**A.** 2%

**Q.** What about the inhibition at 30 µM (Cyclooxygenase COX-2; 30 µM, Cyclooxygenase COX-2, read-out: % Inhibition) of the same compound?
**A.** 18%

**Q.** What about the inhibition at 30 µM (Cyclooxygenase COX-1; [4]) of the same compound?
**A.** 11%

**Q.** And the inhibition at 30 µM (Monoamine Oxidase MAO-A; [5])?
**A.** 0%

**Q.** And the inhibition at 30 µM [2, 6]?
**A.** 2%

**Q.** With `O=C(O)/C=C/c1ccc(O)c(O)c1` [CA, caffeic acid] as the compound, how does the “% change in LV dP/dt max from pre-application” value ([1]; 10 μM) read?
**A.** −6.5 ± 1.6%

**Q.** What about the “% change in LVPSP from pre-application” value ([1]; 10 μM) of the same compound?
**A.** −4.3 ± 0.8%

**Q.** And the “% change in LV dP/dt max from pre-application” value ([1]; 100 μM)?
**A.** −8.8 ± 0.8%

**Q.** What about the “% change in LVPSP from pre-application” value ([1]; 100 μM) of the same compound?
**A.** −6.2 ± 0.9%

**Q.** What about the ED rate (rat hippocampal slices; [3]) of the same compound?
**A.** 0.55 ± 0.07 Hz

**Q.** And the ED rate (rat hippocampal slices; follow-up test, 1 µM compound, co-exposure with 4-AP)?
**A.** 0.35 ± 0.03 Hz

**Q.** And the “% Inhibition” value (Phosphodiesterase PDE4)?
**A.** 4%

**Q.** And the inhibition at 30 µM (Cyclooxygenase COX-2)?
**A.** 9%

**Q.** What about the inhibition at 30 µM (Cyclooxygenase COX-1) of the same compound?
**A.** 6%

**Q.** And the inhibition at 30 µM (Monoamine Oxidase MAO-A)?
**A.** 0%

**Q.** What about the “% Inhibition” value ([2]; 30 µM, Peptidase, CTSG (Cathepsin G)) of the same compound?
**A.** 1%

**Q.** With `COc1cc(/C=C/C(=O)O)ccc1O` [FA, ferulic acid] as the compound, how does the “Effect on LVP” value ([1]; at 100 μM) read?
**A.** did not affect

**Q.** And the “Change in ECG parameters compared to solvent control” value ([1]; until 100 µM)?
**A.** no significant change

**Q.** And the ED rate (rat hippocampal slices; [3])?
**A.** 0.41 ± 0.04 Hz

**Q.** And the “% Inhibition” value (Phosphodiesterase PDE4)?
**A.** 7%

**Q.** And the inhibition at 30 µM (Cyclooxygenase COX-2)?
**A.** 14%

**Q.** What about the inhibition at 30 µM (Cyclooxygenase COX-1) of the same compound?
**A.** 5%

**Q.** What about the inhibition at 30 µM (Monoamine Oxidase MAO-A) of the same compound?
**A.** 5%

**Q.** What about the inhibition at 30 µM [2] of the same compound?
**A.** -2%
